We go through one compound from article PMC6669322, “Small Molecule Binding to Alzheimer Risk Factor CD33 Promotes Aβ Phagocytosis” (iScience, 2019).

For experiment [1], the target named is T1, CD33 F21A (Homo sapiens, UniProt P20138, F21A).
T1 construct: human CD33 ORF (NM_001772.3), lacking its signal peptide; expressed in transfected cells; host or cells: HEK293T, transient, pT8-SNAP vector
As to the kind of experiment: SNAP-tag homogeneous time-resolved fluorescence binding assay, CD33 F21A. As to conditions: binding affinity, F21A vs WT. The procedure: We then used our structural data to design mutations of key residues interacting with P22 to assess which interactions were the most important for binding affinity. The residues were mutated into alanine, and the effect of these mutations on P22 binding affinity was assessed using a SNAP-tag homogeneous time-resolved fluorescence binding assay (see Transparent Methods and Figures 3E–3G). The R119A mutation, which destroys the salt bridge between P22 and CD33, was one of the most detrimental to binding (>30-fold loss) (Figure 2C and Table S4). […]
HEK293T cells were cultured in DMEM (ThermoFisher Scientific # 11965092) containing 10% FBS (Hyclone # SH30070.03) and 1% Penicillin-Streptomycin (ThermoFisher Scientific # 15140122) and transfected using Fugene HD (Promega # E2312) in 10 cm plates. […] The cells were counted, centrifuged and resuspended in PBS at a concentration of 1,000 cells/μL and 10 μL were plated into each well. […] Non-specific binding was assessed by competition with 100 μM of the non-labeled P22, as well as in control (Snap-tagged dopamine D2R receptor)-transfected cells.
Fluorescence was read with a PHERAstar plate reader using an excitation of 337 nm and emissions of 620 and 665 nm. […]

Experiment [2] deals with CD33. The arrangement: method as in Rillahan et al., 2014. As to conditions: estimated, flow cytometry assay; ref Rillahan et al., 2014; cited from earlier work.

T1 sequence (P20138 18-364 F21A): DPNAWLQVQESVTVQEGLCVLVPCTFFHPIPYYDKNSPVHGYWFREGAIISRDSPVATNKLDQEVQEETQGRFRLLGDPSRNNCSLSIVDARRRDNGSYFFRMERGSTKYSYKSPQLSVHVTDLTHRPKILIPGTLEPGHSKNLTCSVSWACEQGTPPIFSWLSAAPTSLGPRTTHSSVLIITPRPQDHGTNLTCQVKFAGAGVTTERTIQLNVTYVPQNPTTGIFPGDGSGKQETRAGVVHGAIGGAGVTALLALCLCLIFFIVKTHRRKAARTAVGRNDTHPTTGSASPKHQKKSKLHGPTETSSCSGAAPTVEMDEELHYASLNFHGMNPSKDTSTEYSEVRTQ

Broadly, the IC50 is the concentration that inhibits the measured activity by half. Take `Cc1cc(C(=O)NC[C@@H](O)[C@@H](O)[C@@H]2O[C@@](OC[C@H]3O[C@@H](O[C@H]4[C@H](O)[C@@H](O)[C@H](OCCN)O[C@@H]4CO)[C@H](O)[C@@H](O)[C@H]3O)(C(=O)O)C[C@H](O)[C@H]2NC(=O)Cn2cc(C3CCCCC3)nn2)cc(C)c1O` [P22, β-D-Glucopyranoside, 2-aminoethyl O-[N-[2-(4-cyclohexyl-1H-1,2,3-triazol-1-yl)acetyl]-9-deoxy-9-[(4-hydroxy-3,5-dimethylbenzoyl)amino]-α-neuraminosyl] (2→6)-O-β-D-galactopyranosyl-(1→4)-]: the “Fold-decrease compared to WT” value in experiment [1] is 6 fold. Also, the IC50 in experiment [2] was 11 µM.
